According to ChEMBL document CHEMBL3612057, “Discovery of indolizines containing triazine moiety as new leads for the development of antitumoral agents targeting mitotic events” (2015):
Activity calls are given as the source filed them. The rule behind the calls is not given here.

Columns and labels:
CCRF-CEM = test: Cytotoxicity against human CCRF-CEM cells assessed as growth inhibition at 10 uM after 24 hrs by SRB assay; format: functional
HL-60(TB) = test: Cytotoxicity against human HL-60(TB) cells assessed as growth inhibition at 10 uM after 24 hrs by SRB assay; format: functional
K562 = test: Cytotoxicity against human K562 cells assessed as growth inhibition at 10 uM after 24 hrs by SRB assay; format: functional
RPMI-8226 = test: Cytotoxicity against human RPMI8226 cells assessed as growth inhibition at 10 uM after 24 hrs by SRB assay; format: functional
SR = test: Cytotoxicity against human SR cells assessed as growth inhibition at 10 uM after 24 hrs by SRB assay; format: functional
A549 = test: Cytotoxicity against human A549 cells assessed as growth inhibition at 10 uM after 24 hrs by SRB assay; format: functional
HOP-62 = test: Cytotoxicity against human HOP62 cells assessed as growth inhibition at 10 uM after 24 hrs by SRB assay; format: functional; conditions: HOP-62, 24 h, read-out: GI
HOP-92 = test: Cytotoxicity against human HOP92 cells assessed as growth inhibition at 10 uM after 24 hrs by SRB assay; format: functional
NCI-H226 = test: Cytotoxicity against human NCI-H226 cells assessed as growth inhibition at 10 uM after 24 hrs by SRB assay; format: functional
NCI-H460 = test: Cytotoxicity against human NCI-H460 cells assessed as growth inhibition at 10 uM after 24 hrs by SRB assay; format: functional
NCI-H522 = test: Cytotoxicity against human NCI-H522 cells assessed as growth inhibition at 10 uM after 24 hrs by SRB assay; format: functional
HCT-116 = test: Cytotoxicity against human HCT116 cells assessed as growth inhibition at 10 uM after 24 hrs by SRB assay; format: functional
SF-295 = test: Cytotoxicity against human SF295 cells assessed as growth inhibition at 10 uM after 24 hrs by SRB assay; format: functional
SF-539 = test: Cytotoxicity against human SF539 cells assessed as growth inhibition at 10 uM after 24 hrs by SRB assay; format: functional
SNB-75 = test: Cytotoxicity against human SNB75 cells assessed as growth inhibition at 10 uM after 24 hrs by SRB assay; format: functional; conditions: SNB-75, 24 h, read-out: GI
U-251 = test: Cytotoxicity against human U251 cells assessed as growth inhibition at 10 uM after 24 hrs by SRB assay; format: functional
Malme-3M = test: Cytotoxicity against human MALME-3M cells assessed as growth inhibition at 10 uM after 24 hrs by SRB assay; format: functional
MDA-MB-435 = test: Cytotoxicity against human MDA-MB-435 cells assessed as growth inhibition at 10 uM after 24 hrs by SRB assay; format: functional
SK-MEL-28 = test: Cytotoxicity against human SK-MEL-28 cells assessed as growth inhibition at 10 uM after 24 hrs by SRB assay; format: functional
SK-MEL-5 = test: Cytotoxicity against human SK-MEL-5 cells assessed as growth inhibition at 10 uM after 24 hrs by SRB assay; format: functional
UACC-257 = test: Cytotoxicity against human UACC257 cells assessed as growth inhibition at 10 uM after 24 hrs by SRB assay; format: functional
UACC-62 = test: Cytotoxicity against human UACC62 cells assessed as growth inhibition at 10 uM after 24 hrs by SRB assay; format: functional
OVCAR-3 = test: Cytotoxicity against human OVCAR3 cells assessed as growth inhibition at 10 uM after 24 hrs by SRB assay; format: functional
OVCAR-4 = test: Cytotoxicity against human OVCAR4 cells assessed as growth inhibition at 10 uM after 24 hrs by SRB assay; format: functional
OVCAR-8 = test: Cytotoxicity against human OVCAR8 cells assessed as growth inhibition at 10 uM after 24 hrs by SRB assay; format: functional
NCI/ADR-RES = test: Cytotoxicity against human NCI/ADR-RES cells assessed as growth inhibition at 10 uM after 24 hrs by SRB assay; format: functional
SK-OV-3 = test: Cytotoxicity against human SKOV3 cells assessed as growth inhibition at 10 uM after 24 hrs by SRB assay; format: functional
786-0 = test: Cytotoxicity against human 786-0 cells assessed as growth inhibition at 10 uM after 24 hrs by SRB assay; format: functional
ACHN = test: Cytotoxicity against human ACHN cells assessed as growth inhibition at 10 uM after 24 hrs by SRB assay; format: functional
CAKI-1 = test: Cytotoxicity against human CAKI-1 cells assessed as growth inhibition at 10 uM after 24 hrs by SRB assay; format: functional
RXF 393 = test: Cytotoxicity against human RXF393 cells assessed as growth inhibition at 10 uM after 24 hrs by SRB assay; format: functional; conditions: RXF 393, 24 h, read-out: GI
TK-10 = test: Cytotoxicity against human TK10 cells assessed as growth inhibition at 10 uM after 24 hrs by SRB assay; format: functional
PC-3 = test: Cytotoxicity against human PC3 cells assessed as growth inhibition at 10 uM after 24 hrs by SRB assay; format: functional
MCF7 = test: Cytotoxicity against human MCF7 cells assessed as growth inhibition at 10 uM after 24 hrs by SRB assay; format: functional
MDA-MB-231 = test: Cytotoxicity against human MDA-MB-231 cells assessed as growth inhibition at 10 uM after 24 hrs by SRB assay; format: functional; conditions: MDA-MB-231, 24 h, read-out: GI
[1] = Cytotoxicity against human Hs578T cells assessed as growth inhibition at 10 uM after 24 hrs by SRB assay; format: functional; conditions: Hs-578T, read-out: GI
T47D = test: Cytotoxicity against human T47D cells assessed as growth inhibition at 10 uM after 24 hrs by SRB assay; format: functional
Ovis aries = species: Ovis aries; test: Inhibition of sheep tubulin polymerization at 100 uM by fluorescence assay

Row | SMILES | growth inhibition (GI) (CCRF-CEM) | growth inhibition (GI) (HL-60(TB)) | growth inhibition (GI) (K562) | growth inhibition (GI) (RPMI-8226) | inhibition of growth at 10 µM (HOP-62) [%] | growth inhibition (GI) (HOP-92) | growth inhibition (GI) (NCI-H522) | growth inhibition (GI) (HCT-116) | growth inhibition (GI) (SF-539) | inhibition of growth at 10 µM (SNB-75) [%] | growth inhibition (GI) (U-251) | growth inhibition (GI) (MDA-MB-435) | growth inhibition (GI) (SK-MEL-5) | growth inhibition (GI) (UACC-62) | growth inhibition (GI) (SK-OV-3) | inhibition of growth at 10 µM (RXF 393) [%] | growth inhibition (GI) (TK-10) | inhibition of growth at 10 µM (MDA-MB-231) [%] | inhibition of growth at 10 µM [1] [%] | inhibition (Ovis aries) | other results
1 | COc1ccc(C(=O)c2cc(-c3nc(OC)nc(OC)n3)c3cc(C#N)ccn23)cc1 | inactive | inactive | inactive | inactive | 25 | inactive | inactive | inactive | inactive | 46 | inactive | inactive | inactive | inactive | inactive | 14 | inactive | 18 | 16 | inactive | inhibition of growth at 10 µM (SR; read-out: GI): 13%; growth inhibition (GI) (A549): inactive; growth inhibition (GI) (NCI-H226): inactive; growth inhibition (GI) (NCI-H460): inactive; growth inhibition (GI) (SF-295): inactive; growth inhibition (GI) (Malme-3M): inactive; growth inhibition (GI) (SK-MEL-28): inactive; growth inhibition (GI) (UACC-257): inactive; growth inhibition (GI) (OVCAR-3): inactive; growth inhibition (GI) (OVCAR-4): inactive; growth inhibition (GI) (OVCAR-8): inactive; growth inhibition (GI) (NCI/ADR-RES): inactive; growth inhibition (GI) (786-0): inactive; growth inhibition (GI) (ACHN): inactive; growth inhibition (GI) (CAKI-1): inactive; growth inhibition (GI) (PC-3): inactive; growth inhibition (GI) (MCF7): inactive; growth inhibition (GI) (T47D): inactive
2 | COc1nc(OC)nc(-c2cc(C(=O)c3ccc(Br)cc3)n3c2ccc2ccccc23)n1 | inactive | inactive | inactive | inactive | 79 | inactive | inactive | inactive | inactive | 69 | inactive | inactive | inactive | inactive | inactive | 61 | inactive | 80 | 56 | inactive | growth inhibition (GI) (SR): inactive; inhibition of growth at 10 µM (A549; A549, 24 h, read-out: GI): 49%; inhibition of growth at 10 µM (NCI-H226; NCI-H226, 24 h, read-out: GI): 35%; inhibition of growth at 10 µM (NCI-H460; NCI-H460, 24 h, read-out: GI): 68%; inhibition of growth at 10 µM (SF-295; SF-295, 24 h, read-out: GI): 59%; inhibition of growth at 10 µM (Malme-3M; read-out: GI): 58%; inhibition of growth at 10 µM (SK-MEL-28; SK-MEL-28, 24 h, read-out: GI): 43%; inhibition of growth at 10 µM (UACC-257; UACC-257, 24 h, read-out: GI): 30%; inhibition of growth at 10 µM (OVCAR-3; OVCAR-3, 24 h, read-out: GI): 31%; inhibition of growth at 10 µM (OVCAR-4; OVCAR-4, 24 h, read-out: GI): 30%; inhibition of growth at 10 µM (OVCAR-8; OVCAR-8, 24 h, read-out: GI): 50%; inhibition of growth at 10 µM (NCI/ADR-RES; read-out: GI): 43%; inhibition of growth at 10 µM (786-0; 786-0, 24 h, read-out: GI): 45%; inhibition of growth at 10 µM (ACHN; read-out: GI): 22%; inhibition of growth at 10 µM (CAKI-1; CAKI-1, 24 h, read-out: GI): 33%; inhibition of growth at 10 µM (PC-3; PC-3, 24 h, read-out: GI): 37%; inhibition of growth at 10 µM (MCF7; MCF7, 24 h, read-out: GI): 44%; inhibition of growth at 10 µM (T47D; read-out: GI): 31%
